Data: patent publication US20250179061A1 (SIRONAX LTD., priority 2022, published 2025)

What follows are compounds tested on HT-29 cells (assay: HT-29 necroptosis cell viability assay (TNF-α/SMAC mimetic/zVAD-FMK, CellTiter-Glo)). Details: Homo sapiens, HT-29, HT-29 necroptosis cell viability assay; class symbols for IC50; read-out: Activity.
Assay type: cell-based
How it was run: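 HT-29 cells (~5,000/well, overnight) in FBS-free McCoy's 5A with TNF-α 10 ng/ml, SMAC mimetic 6 μM and zVAD-FMK 10 μM plus 10-point 1:3 compound titration, 20 h at 37°C. ATP measured by CellTiter-Glo luminescence; IC50 as geometric mean of duplicates.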
For `CC(C)(C)OC(=O)N1CCC2(CC1)CN(c1cc(Oc3ccc(-n4ncn(Cc5c(F)cccc5F)c4=O)cc3)ccn1)C2` [Example 480, tert-butyl2-(4-(4-(4-(2,6-difluorobenzyl)-5-oxo-4,5-dihydro-1H-1,2,4-triazol-1-yl)phenoxy)pyridin-2-yl)-2,7-diazaspiro[3.5]nonane-7-carboxylate], the IC50 was less than 100 nM. For `O=c1n(Cc2c(F)cccc2F)cnn1-c1ccc(Oc2ccnc(N3C[C@H]4COC[C@H]4C3)c2)cc1` [Example 481, 4-(2,6-difluorobenzyl)-2-(4-((2-((3aR,6aS)-tetrahydro-1H-furo[3,4-c]pyrrol-5(3H)-yl)pyridin-4-yl)oxy)phenyl)-2,4-dihydro-3H-1,2,4-triazol-3-one], the IC50 was 100 to 1000 nM. With `O=C1CC2(CCOCC2)CN1c1cc(Oc2ccc(-n3ncn(Cc4c(F)cccc4F)c3=O)cc2)ccn1` [Example 482, 2-(4-(4-(4-(2,6-difluorobenzyl)-5-oxo-4,5-dihydro-1H-1,2,4-triazol-1-yl)phenoxy)pyridin-2-yl)-8-oxa-2-azaspiro[4.5]decan-3-one] the IC50 was 100 to 1000 nM. `O=c1n(Cc2c(F)cccc2F)cnn1-c1ccc(Oc2ccnc(N3CC(OCC4CC4)C3)c2)cc1` [Example 483, 2-(4-((2-(3-(cyclopropylmethoxy)azetidin-1-yl)pyridin-4-yl)oxy)phenyl)-4-(2,6-difluorobenzyl)-2,4-dihydro-3H-1,2,4-triazol-3-one] was tested, and the IC50 was 100 to 1000 nM. With `O=c1n(Cc2c(F)cccc2F)cnn1-c1ccc(Oc2ccnc(NCC3CCCO3)c2)cc1` (centres unmarked) [Example 484, 4-(2,6-difluorobenzyl)-2-(4-((2-(((tetrahydrofuran-2-yl)methyl)amino)pyridin-4-yl)oxy)phenyl)-2,4-dihydro-3H-1,2,4-triazol-3-one] the IC50 was 100 to 1000 nM. In the case of `CN(c1cc(Oc2ccc(-n3ncn(Cc4c(F)cccc4F)c3=O)cc2)ccn1)C1CC1` [Example 485, 2-(4-((2-(cyclopropyl(methyl)amino)pyridin-4-yl)oxy)phenyl)-4-(2,6-difluorobenzyl)-2,4-dihydro-3H-1,2,4-triazol-3-one], the IC50 is reported as 100 to 1000 nM. Work on `CCOC1CN(c2cc(Oc3ccc(-n4ncn(Cc5c(Cl)cccc5Cl)c4=O)cc3)ccn2)C1` [Example 486, 4-(2,6-dichlorobenzyl)-2-(4-((2-(3-ethoxyazetidin-1-yl)pyridin-4-yl)oxy)phenyl)-2,4-dihydro-3H-1,2,4-triazol-3-one] yielded an IC50 of 100 to 1000 nM. With `CN(CC1CCCO1)c1nccc(Oc2ccc(-n3ncn(Cc4c(F)cccc4F)c3=O)cc2)c1F` (centres unmarked) [Example 487, 4-(2,6-difluorobenzyl)-2-(4-((3-fluoro-2-(methyl((tetrahydrofuran-2-yl)methyl)amino)pyridin-4-yl)oxy)phenyl)-2,4-dihydro-3H-1,2,4-triazol-3-one] the IC50 was 100 to 1000 nM. Work on `CCOC1(C)CN(c2nccc(Oc3ccc(-n4ncn(Cc5c(F)cccc5Cl)c4=O)cc3)c2F)C1` [Example 488, 4-(2-chloro-6-fluorobenzyl)-2-(4-((2-(3-ethoxy-3-methylazetidin-1-yl)-3-fluoropyridin-4-yl)oxy)phenyl)-2,4-dihydro-3H-1,2,4-triazol-3-one] yielded an IC50 of less than 100 nM. Compound `CCOC1(C)CN(c2cc(Oc3ccc(-n4ncn(Cc5c(F)cccc5Cl)c4=O)cc3)ccn2)C1` [Example 489, 4-(2-chloro-6-fluorobenzyl)-2-(4-((2-(3-ethoxy-3-methylazetidin-1-yl)pyridin-4-yl)oxy)phenyl)-2,4-dihydro-3H-1,2,4-triazol-3-one] has an IC50 of 100 to 1000 nM. Work on `CCOC1(C)CN(c2nccc(Oc3ccc(-n4ncn(Cc5c(F)cccc5F)c4=O)cc3)c2F)C1` [Example 490, 4-(2,6-difluorobenzyl)-2-(4-((2-(3-ethoxy-3-methylazetidin-1-yl)-3-fluoropyridin-4-yl)oxy)phenyl)-2,4-dihydro-3H-1,2,4-triazol-3-one] yielded an IC50 of less than 100 nM.

Same assay, conditions: Homo sapiens, HT-29, HT-29 necroptosis cell viability, IC50 class symbols; read-out: Activity
With `Cc1nc(C(C)(C)O)sc1Oc1ccc(-n2ncn(Cc3c(F)cccc3F)c2=O)cc1F` [Example 462, 4-(2,6-difluorobenzyl)-2-(3-fluoro-4-((2-(2-hydroxypropan-2-yl)-4-methylthiazol-5-yl)oxy)phenyl)-2,4-dihydro-3H-1,2,4-triazol-3-one] the IC50 was less than 100 nM. For `Cc1nc(C(C)(C)O)sc1Oc1ccc(-n2nc3n(c2=O)C(c2ccccc2)CC3)cc1F` (centres unmarked) [Example 463, 2-(3-fluoro-4-((2-(2-hydroxypropan-2-yl)-4-methylthiazol-5-yl)oxy)phenyl)-5-phenyl-2,5,6,7-tetrahydro-3H-pyrrolo[2,1-c][1,2,4]triazol-3-one], the IC50 was less than 100 nM. In the case of `Cc1cccnc1Cn1cnn(-c2ccc(Oc3sc(C(C)(C)O)nc3C)c(F)c2)c1=O` [Example 464, 2-(3-fluoro-4-((2-(2-hydroxypropan-2-yl)-4-methylthiazol-5-yl)oxy)phenyl)-4-((3-methylpyridin-2-yl)methyl)-2,4-dihydro-3H-1,2,4-triazol-3-one], the IC50 is reported as 100 to 1000 nM. In the case of `Cc1nc(C(C)(C)O)sc1Oc1ncc(-n2ncn(Cc3c(F)cccc3F)c2=O)cc1F` [Example 465, 4-(2,6-difluorobenzyl)-2-(5-fluoro-6-((2-(2-hydroxypropan-2-yl)-4-methylthiazol-5-yl)oxy)pyridin-3-yl)-2,4-dihydro-3H-1,2,4-triazol-3-one], the IC50 is reported as less than 100 nM. `Cc1nc(C(C)(C)O)sc1Oc1ccc(-n2ncn(Cc3ncccc3Cl)c2=O)cc1F` [Example 466, 4-((3-chloropyridin-2-yl)methyl)-2-(3-fluoro-4-((2-(2-hydroxypropan-2-yl)-4-methylthiazol-5-yl)oxy)phenyl)-2,4-dihydro-3H-1,2,4-triazol-3-one] showed an IC50 of less than 100 nM. With `Cc1nc(C(C)(C)O)sc1Oc1ccc(-n2ncn(Cc3cnccc3Cl)c2=O)cc1F` [Example 467, 4-((4-chloropyridin-3-yl)methyl)-2-(3-fluoro-4-((2-(2-hydroxypropan-2-yl)-4-methylthiazol-5-yl)oxy)phenyl)-2,4-dihydro-3H-1,2,4-triazol-3-one] the IC50 was 100 to 1000 nM. `Cc1nc(C(C)(C)O)sc1Oc1ncc(-n2ncn(Cc3c(F)cccc3F)c2=O)cc1Cl` [Example 468, 2-(5-chloro-6-((2-(2-hydroxypropan-2-yl)-4-methylthiazol-5-yl)oxy)pyridin-3-yl)-4-(2,6-difluorobenzyl)-2,4-dihydro-3H-1,2,4-triazol-3-one] showed an IC50 of less than 100 nM. For `Cc1nc(C(C)(C)O)sc1Oc1ccc(-n2ncn(Cc3ccccc3F)c2=O)cc1F` [Example 469, 2-(3-fluoro-4-((2-(2-hydroxypropan-2-yl)-4-methylthiazol-5-yl)oxy)phenyl)-4-(2-fluorobenzyl)-2,4-dihydro-3H-1,2,4-triazol-3-one], the IC50 was less than 100 nM. `Cc1nc(C(C)(C)O)sc1Oc1ccc(-n2ncn(Cc3cc(F)ccc3F)c2=O)cc1F` [Example 470, 4-(2,5-difluorobenzyl)-2-(3-fluoro-4-((2-(2-hydroxypropan-2-yl)-4-methylthiazol-5-yl)oxy)phenyl)-2,4-dihydro-3H-1,2,4-triazol-3-one] gave an IC50 of less than 100 nM. Work on `Cc1nc(C(C)(C)O)sc1Oc1ccc(-n2ncn(Cc3cc(Cl)ccn3)c2=O)cc1F` [Example 471, 4-((4-chloropyridin-2-yl)methyl)-2-(3-fluoro-4-((2-(2-hydroxypropan-2-yl)-4-methylthiazol-5-yl)oxy)phenyl)-2,4-dihydro-3H-1,2,4-triazol-3-one] yielded an IC50 of 1000 to 10000 nM. Compound `Cc1c(C(C)(C)O)noc1Oc1ccc(-n2ncn(Cc3c(F)cccc3F)c2=O)cc1F` [Example 472, 4-(2,6-difluorobenzyl)-2-(3-fluoro-4-((3-(2-hydroxypropan-2-yl)-4-methylisoxazol-5-yl)oxy)phenyl)-2,4-dihydro-3H-1,2,4-triazol-3-one] has an IC50 of 100 to 1000 nM. Compound `Cc1nc(C(C)(C)O)sc1Oc1ccc(-n2ncn(Cc3c(F)cccc3F)c2=O)cc1` [Example 473, 4-(2,6-difluorobenzyl)-2-(4-((2-(2-hydroxypropan-2-yl)-4-methylthiazol-5-yl)oxy)phenyl)-2,4-dihydro-3H-1,2,4-triazol-3-one] has an IC50 of less than 100 nM. Compound `CC1(C)COC(Nc2cc(Oc3ccc(-n4ncn(Cc5c(F)cccc5F)c4=O)cc3F)c(F)cn2)=N1` [Example 474, 4-(2,6-difluorobenzyl)-2-(4-((2-((4,4-dimethyl-4,5-dihydrooxazol-2-yl)amino)-5-fluoropyridin-4-yl)oxy)-3-fluorophenyl)-2,4-dihydro-3H-1,2,4-triazol-3-one] has an IC50 of 100 to 1000 nM. `Cc1c(C#N)noc1Oc1ccc(-n2ncn(Cc3c(F)cccc3F)c2=O)cc1F` [Example 475, 5-(4-(4-(2,6-difluorobenzyl)-5-oxo-4,5-dihydro-1H-1,2,4-triazol-1-yl)-2-fluorophenoxy)-4-methylisoxazole-3-carbonitrile] was tested, and the IC50 was less than 100 nM. `Cc1c(C(N)=O)noc1Oc1ccc(-n2ncn(Cc3c(F)cccc3F)c2=O)cc1F` [Example 476, 5-(4-(4-(2,6-difluorobenzyl)-5-oxo-4,5-dihydro-1H-1,2,4-triazol-1-yl)-2-fluorophenoxy)-4-methylisoxazole-3-carboxamide] gave an IC50 of less than 100 nM. `CCOC(=O)c1noc(Oc2ccc(-n3ncn(Cc4c(F)cccc4F)c3=O)cc2F)c1C` [Example 477, ethyl 5-(4-(4-(2,6-difluorobenzyl)-5-oxo-4,5-dihydro-1H-1,2,4-triazol-1-yl)-2-fluorophenoxy)-4-methylisoxazole-3-carboxylate] was tested, and the IC50 was 100 to 1000 nM. With `CN(c1cc(Oc2ccc(-n3ncn(Cc4c(F)cccc4F)c3=O)cc2)ccn1)C1CC(F)(F)C1` [Example 478, 4-(2,6-difluorobenzyl)-2-(4-((2-((3,3-difluorocyclobutyl)(methyl)amino)pyridin-4-yl)oxy)phenyl)-2,4-dihydro-3H-1,2,4-triazol-3-one] the IC50 was 100 to 1000 nM. With `Cn1ncn(Cc2ccc(-n3ncn(Cc4c(F)cccc4F)c3=O)cc2)c1=O` [Example 479, 4-(2,6-difluorobenzyl)-2-(4-((1-methyl-5-oxo-1,5-dihydro-4H-1,2,4-triazol-4-yl)methyl)phenyl)-2,4-dihydro-3H-1,2,4-triazol-3-one] the IC50 was 1000 to 10000 nM.
